ChEMBL document CHEMBL3774320, “SAR exploration at the C-3 position of tetrahydro-β-carboline sstr3 antagonists” (Bioorg Med Chem Lett, 2016)

Key:
[1] = biological target: T1, Somatostatin receptor type 3 (Homo sapiens, UniProt P32745)
Description: Antagonist activity at human somatostatin receptor type 3 assessed as inhibition of cAMP levels

[2] = biological target: T1, Somatostatin receptor type 3; remark: listed apart in the source
Description: Binding affinity to human somatostatin receptor type 3

[3] = biological target: Voltage-gated inwardly rectifying potassium channel KCNH2 (Homo sapiens, UniProt Q12809); experiment: Binding affinity to human ERG
Mus musculus [4] = experiment: Decrease in glucose excursion in mouse at 10 mg/kg, po by Glucose tolerance test; format: functional; design: scale not given: the % may be the effect or the level left
Mus musculus [5] = experiment: Dose normalized AUC in mouse at 2 mg/kg, po; format: ADME, organism-based; conditions: in vivo
Mus musculus [6] = experiment: Decrease in glucose excursion in mouse at 0.1 mg/kg, po by Glucose tolerance test; format: functional; design: scale not given: the % may be the effect or the level left

Sequence of Voltage-gated inwardly rectifying potassium channel KCNH2 (Q12809 whole entry): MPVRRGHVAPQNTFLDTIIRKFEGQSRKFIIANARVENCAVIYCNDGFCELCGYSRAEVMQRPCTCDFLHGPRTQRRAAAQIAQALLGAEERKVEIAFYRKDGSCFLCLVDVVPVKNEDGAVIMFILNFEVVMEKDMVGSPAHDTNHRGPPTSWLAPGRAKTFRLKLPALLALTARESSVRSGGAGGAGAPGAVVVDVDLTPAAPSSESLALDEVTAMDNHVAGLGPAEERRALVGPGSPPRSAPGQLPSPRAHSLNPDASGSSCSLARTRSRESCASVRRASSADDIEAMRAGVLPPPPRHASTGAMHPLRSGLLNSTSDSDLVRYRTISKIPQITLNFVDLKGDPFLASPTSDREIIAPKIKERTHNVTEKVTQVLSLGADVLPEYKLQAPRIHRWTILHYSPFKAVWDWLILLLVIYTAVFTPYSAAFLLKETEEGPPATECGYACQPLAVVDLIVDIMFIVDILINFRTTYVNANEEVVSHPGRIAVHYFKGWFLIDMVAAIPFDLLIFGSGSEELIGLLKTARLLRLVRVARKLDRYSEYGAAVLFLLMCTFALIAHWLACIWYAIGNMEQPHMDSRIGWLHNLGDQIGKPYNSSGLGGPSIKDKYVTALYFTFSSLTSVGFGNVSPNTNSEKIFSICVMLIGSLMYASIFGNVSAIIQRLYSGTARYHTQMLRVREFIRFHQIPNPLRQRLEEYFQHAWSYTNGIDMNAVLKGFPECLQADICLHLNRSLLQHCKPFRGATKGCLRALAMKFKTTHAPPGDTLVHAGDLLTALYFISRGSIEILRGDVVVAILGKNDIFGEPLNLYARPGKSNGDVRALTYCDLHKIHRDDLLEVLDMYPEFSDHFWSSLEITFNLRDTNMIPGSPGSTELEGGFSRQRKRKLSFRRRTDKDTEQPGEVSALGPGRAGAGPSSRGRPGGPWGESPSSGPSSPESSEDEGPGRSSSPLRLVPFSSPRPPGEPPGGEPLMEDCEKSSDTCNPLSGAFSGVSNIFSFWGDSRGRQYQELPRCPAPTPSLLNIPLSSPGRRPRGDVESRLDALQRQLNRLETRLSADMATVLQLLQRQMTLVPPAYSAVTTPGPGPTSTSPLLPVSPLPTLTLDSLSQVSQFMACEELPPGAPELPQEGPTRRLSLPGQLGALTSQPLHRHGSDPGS
T1 sequence (P32745 whole entry): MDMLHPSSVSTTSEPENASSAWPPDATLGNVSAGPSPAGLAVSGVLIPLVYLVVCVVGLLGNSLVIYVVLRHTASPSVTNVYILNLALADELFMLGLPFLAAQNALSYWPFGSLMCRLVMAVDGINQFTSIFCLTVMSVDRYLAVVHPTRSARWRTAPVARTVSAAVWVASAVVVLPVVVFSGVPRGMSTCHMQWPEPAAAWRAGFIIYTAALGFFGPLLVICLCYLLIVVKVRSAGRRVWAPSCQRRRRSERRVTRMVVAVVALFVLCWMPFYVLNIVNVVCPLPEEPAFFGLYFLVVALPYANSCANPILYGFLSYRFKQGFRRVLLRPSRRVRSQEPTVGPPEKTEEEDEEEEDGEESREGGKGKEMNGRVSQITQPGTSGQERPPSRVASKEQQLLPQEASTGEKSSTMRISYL

| Compound | EC50 [1] | IC50 [2] | further results |
| --- | --- | --- | --- |
| Fc1ccc(-c2c[nH]c([C@H]3Cc4c([nH]c5ccccc45)[C@@H](C4CCOCC4)N3)n2)cc1F | 6.4 nM | 1.8 nM | – |
| Clc1ccc(-c2c[nH]c([C@H]3Cc4c([nH]c5ccccc45)[C@@H](C4CCOCC4)N3)n2)s1 | 206 nM | 17 nM | – |
| CS(=O)(=O)c1ccc(-c2c[nH]c([C@H]3Cc4c([nH]c5ccccc45)[C@@H](C4CCOCC4)N3)n2)cc1 | > 1000 nM | > 1330 nM | – |
| N#Cc1ccc(-c2c[nH]c([C@H]3Cc4c([nH]c5ccccc45)[C@@H](C4CCOCC4)N3)n2)cc1 | – | 141 nM | – |
| FC(F)(F)c1ccc(-c2c[nH]c([C@H]3Cc4c([nH]c5ccccc45)[C@@H](C4CCOCC4)N3)n2)cc1 | 1520 nM | 26 nM | – |
| c1ccc2c3c([nH]c2c1)[C@@H](C1CCOCC1)N[C@@H](c1nc(-c2csc4ccccc24)c[nH]1)C3 | 11 nM | 10 nM | – |
| Cc1nc([C@@]2(c3cnn(C)c3)N[C@@H](c3nc(-c4ccccn4)c[nH]3)Cc3c2[nH]c2ccccc32)no1 | 77 nM | 24 nM | – |
| Fc1ccc(-c2c[nH]c([C@H]3Cc4c([nH]c5ccccc45)[C@@H](C4CCOCC4)N3)n2)c(F)c1 | 37 nM | 23 nM | IC50 [3]: 634 nM |
| N#Cc1cccc(-c2c[nH]c([C@H]3Cc4c([nH]c5ccccc45)[C@@H](C4CCOCC4)N3)n2)c1 | 435 nM | 37 nM | – |
| COc1cccc(-c2c[nH]c([C@H]3Cc4c([nH]c5ccccc45)[C@@H](C4CCOCC4)N3)n2)n1 | 3.1 nM | 8 nM | IC50 [3]: 1020 nM |
| Cc1nc([C@@]2(c3cnn(C)c3)N[C@@H](c3nc(-c4ccccc4)c[nH]3)Cc3c2[nH]c2ccccc32)no1 | 3.3 nM | 2.6 nM | – |
| CC1(c2nc(-c3ccccc3)c[nH]2)Cc2c([nH]c3ccccc23)C(C2CCOCC2)N1 (stereo in doubt; 6c) | – | > 1330 nM | IC50 [3]: 1630 nM |
| COc1ccc(-c2c[nH]c([C@H]3Cc4c([nH]c5ccccc45)[C@@H](C4CCOCC4)N3)n2)cc1 | 181 nM | 127 nM | – |
| c1ccc2c3c([nH]c2c1)C(C1CCOCC1)NC(c1nc(C2CCCCC2)c[nH]1)C3 (configuration not stated) | 691 nM | 230 nM | – |
| Clc1ccc(-c2c[nH]c([C@H]3Cc4c([nH]c5ccccc45)[C@@H](C4CCOCC4)N3)n2)cc1 | 50 nM | 8.1 nM | – |
| Cc1ccc(-c2c[nH]c([C@H]3Cc4c([nH]c5ccccc45)[C@@H](C4CCOCC4)N3)n2)cc1 | 113 nM | 33 nM | – |
| c1ccc(-c2c[nH]c([C@H]3Cc4c([nH]c5ccccc45)[C@@H](C4CCOCC4)N3)n2)cc1 | 22 nM | – | Activity (Mus musculus [4]): 75%; AUC/dose (Mus musculus [5]): 1.25 µM·h/mg/kg |
| c1ccc2c3c([nH]c2c1)[C@@H](C1CCOCC1)N[C@@H](c1nc(-c2cnccn2)c[nH]1)C3 | 4500 nM | 782 nM | – |
| c1cnc(-c2c[nH]c([C@H]3Cc4c([nH]c5ccccc45)[C@@H](C4CCOCC4)N3)n2)nc1 | > 1000 nM | > 1330 nM | – |
| c1ccc2c3c([nH]c2c1)C(C1CCOCC1)NC(c1nc(C24CC5CC(CC(C5)C2)C4)c[nH]1)C3 (configuration not stated) | > 1000 nM | 25 nM | IC50 [3]: 506 nM |
| FC(F)(F)Oc1cccc(-c2c[nH]c([C@H]3Cc4c([nH]c5ccccc45)[C@@H](C4CCOCC4)N3)n2)c1 | > 1000 nM | 43 nM | IC50 [3]: 58 nM |
| c1ccc2c(-c3c[nH]c([C@H]4Cc5c([nH]c6ccccc56)[C@@H](C5CCOCC5)N4)n3)c[nH]c2c1 | – | 133 nM | – |
| c1ccc(-c2nc([C@H]3Cc4c([nH]c5ccccc45)[C@@H](C4CCOCC4)N3)c[nH]2)cc1 | 405 nM | 487 nM | – |
| Fc1ccc(-c2cc([C@H]3Cc4c([nH]c5ccccc45)[C@@H](C4CCOCC4)N3)[nH]n2)cc1 | 938 nM | 280 nM | – |
| COc1cccc(-c2c[nH]c([C@H]3Cc4c([nH]c5ccccc45)[C@@](c4cnn(C)c4)(c4noc(C)n4)N3)n2)n1 | 17 nM | 2.9 nM | – |
| Fc1ccc(-c2c[nH]c([C@H]3Cc4c([nH]c5ccccc45)[C@@H](C4CCOCC4)N3)n2)nc1 | 67 nM | 39 nM | – |
| CC(C)(C)c1c[nH]c(C2Cc3c([nH]c4ccccc34)C(C3CCOCC3)N2)n1 (configuration not stated) | 1010 nM | 150 nM | IC50 [3]: 2940 nM |

| Compound | EC50 [1] | IC50 [2] | further results |
| --- | --- | --- | --- |
| c1ccc2c3c([nH]c2c1)[C@@H](C1CCOCC1)N[C@@H](c1nc(-c2ccsc2)c[nH]1)C3 | 48 nM | 15 nM | – |
| Cc1nc([C@]2(c3cnn(C)c3)N[C@@H](c3nc(-c4ccc(F)cc4)c[nH]3)Cc3c2[nH]c2ccccc32)no1 | – | – | Activity (Mus musculus [6]): 94% |
| Oc1ccc(-c2c[nH]c([C@H]3Cc4c([nH]c5ccccc45)[C@@H](C4CCOCC4)N3)n2)cc1 | 26 nM | 34 nM | – |
| Fc1ccc(-c2n[nH]c([C@H]3Cc4c([nH]c5ccccc45)[C@@H](C4CCOCC4)N3)n2)cc1 | 201 nM | 282 nM | – |
| O=C(O)c1cccc(-c2c[nH]c([C@H]3Cc4c([nH]c5ccccc45)[C@@H](C4CCOCC4)N3)n2)c1 | – | > 1330 nM | – |
| Cn1cc(-c2ccc(F)cc2)nc1[C@H]1Cc2c([nH]c3ccccc23)[C@@H](C2CCOCC2)N1 | > 1000 nM | 225 nM | – |
| Cc1csc(-c2c[nH]c([C@H]3Cc4c([nH]c5ccccc45)[C@@H](C4CCOCC4)N3)n2)c1 | 138 nM | 34 nM | – |
| Cn1cc(-c2ccc(F)cc2)nc1[C@H]1Cc2c([nH]c3ccccc23)[C@H](C2CCOCC2)N1 | – | 1330 nM | – |
| COc1cccc(-c2c[nH]c([C@H]3Cc4c([nH]c5ccccc45)[C@](c4cnn(C)c4)(c4noc(C)n4)N3)n2)n1 | 4.8 nM | 2.1 nM | – |
| Fc1cccc(-c2c[nH]c([C@H]3Cc4c([nH]c5ccccc45)[C@@H](C4CCOCC4)N3)n2)c1 | 88 nM | 8.2 nM | – |
| Fc1ccccc1-c1c[nH]c([C@H]2Cc3c([nH]c4ccccc34)[C@@H](C3CCOCC3)N2)n1 | 30 nM | 18 nM | – |
| Cc1nc([C@]2(c3cnn(C)c3)N[C@@H](c3nc(-c4ccccc4)c[nH]3)Cc3c2[nH]c2ccccc32)no1 | 0.46 nM | 1.4 nM | – |
| c1ccc2c3c([nH]c2c1)[C@@H](C1CCOCC1)N[C@@H](c1nc(-c2cscn2)c[nH]1)C3 | > 1000 nM | 786 nM | – |
| c1ccc2c3c([nH]c2c1)[C@@H](C1CCOCC1)N[C@@H](c1nc(-c2nccs2)c[nH]1)C3 | > 1000 nM | > 1330 nM | – |
| c1ccc(-c2ccc(-c3c[nH]c([C@H]4Cc5c([nH]c6ccccc56)[C@@H](C5CCOCC5)N4)n3)cc2)cc1 | > 1000 nM | 391 nM | – |
| CC1(c2nc(-c3ccccc3)c[nH]2)Cc2c([nH]c3ccccc23)C(C2CCOCC2)N1 (stereo in doubt; 6d) | > 1000 nM | 102 nM | IC50 [3]: 530 nM |
| Cc1[nH]c([C@H]2Cc3c([nH]c4ccccc34)[C@@H](C3CCOCC3)N2)nc1-c1ccccc1 | > 1000 nM | 573 nM | – |
| Cn1c2c(c3ccccc31)C[C@H](c1nc(-c3ccc(F)cc3)c[nH]1)N[C@@H]2C1CCOCC1 | 150 nM | 26 nM | – |
| c1cncc(-c2c[nH]c([C@H]3Cc4c([nH]c5ccccc45)[C@@H](C4CCOCC4)N3)n2)c1 | – | 193 nM | – |
| c1ccc2c3c([nH]c2c1)[C@@H](C1CCOCC1)N[C@@H](c1nc(-c2ccncc2)c[nH]1)C3 | 432 nM | 163 nM | – |
| COc1cccc(-c2c[nH]c([C@H]3Cc4c([nH]c5ccccc45)[C@@H](C4CCOCC4)N3)n2)c1 | 17 nM | 4.6 nM | – |
| Clc1ccc(-c2c[nH]c([C@H]3Cc4c([nH]c5ccccc45)[C@@H](C4CCOCC4)N3)n2)nc1 | 199 nM | 74 nM | – |
| c1ccc(-c2c[nH]c([C@H]3Cc4c([nH]c5ccccc45)[C@@H](C4CCOCC4)N3)n2)nc1 | 196 nM | 109 nM | – |
| FC(F)(F)Oc1ccc(-c2c[nH]c([C@H]3Cc4c([nH]c5ccccc45)[C@@H](C4CCOCC4)N3)n2)cc1 | > 1000 nM | 639 nM | – |
| Cc1nc([C@]2(c3cnn(C)c3)N[C@@H](c3nc(-c4ccccn4)c[nH]3)Cc3c2[nH]c2ccccc32)no1 | 5.5 nM | 9.4 nM | – |
| CC1(c2nc(-c3ccccc3)c[nH]2)Cc2c([nH]c3ccccc23)C(C2CCOCC2)N1 (stereo in doubt; 6b) | – | 603 nM | IC50 [3]: 2950 nM |
